Values quoted from earlier work as cited in article PMC9353746 (ACS chemical neuroscience, 2021).

Target: T1, recombinant A1 adenosine receptor (human) (Homo sapiens, UniProt P30542)
T1 sequence (P30542 1-326): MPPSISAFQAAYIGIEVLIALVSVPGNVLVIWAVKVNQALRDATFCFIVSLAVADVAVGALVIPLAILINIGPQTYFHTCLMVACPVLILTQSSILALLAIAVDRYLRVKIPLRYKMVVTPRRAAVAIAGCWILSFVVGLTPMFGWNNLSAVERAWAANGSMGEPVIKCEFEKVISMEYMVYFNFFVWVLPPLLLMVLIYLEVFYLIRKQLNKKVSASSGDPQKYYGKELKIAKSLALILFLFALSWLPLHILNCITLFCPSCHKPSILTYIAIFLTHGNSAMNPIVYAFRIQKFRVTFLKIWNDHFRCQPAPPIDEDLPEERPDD
Conditions: read-out: Ki, A1R

Ki: 490 pM
Compound: COc1cccc(-c2c(C#N)c(N)nc(SCc3cccc(C)n3)c2C#N)c1 [[^11C]MMPD, 2-amino-4-(3-(methoxy-^11C)phenyl)-6-(((6-methylpyridin-2-yl)methyl)thio)pyridine-3,5-dicarbonitrile]
